From patent EP0628039B1, “2,3,4,5-TETRAHYDRO-1H-3-BENZAZEPINES AND PHARMACEUTICALLY ACCEPTABLE ACID ADDITION SALTS THEREOF” (NOVO NORDISK A/S, priority 1992, dated 1993)
Where two headings read alike, the source gives them in different places.

Target: T1, dopamine D1 receptor (Rattus norvegicus, UniProt P18901)
T1 construct: homogenates from rat striatum; from tissue; host or cells: rat striatum homogenate
Assay: Binding to dopamine D1 receptor in homogenates from rat striatum

T1 sequence (P18901 whole entry): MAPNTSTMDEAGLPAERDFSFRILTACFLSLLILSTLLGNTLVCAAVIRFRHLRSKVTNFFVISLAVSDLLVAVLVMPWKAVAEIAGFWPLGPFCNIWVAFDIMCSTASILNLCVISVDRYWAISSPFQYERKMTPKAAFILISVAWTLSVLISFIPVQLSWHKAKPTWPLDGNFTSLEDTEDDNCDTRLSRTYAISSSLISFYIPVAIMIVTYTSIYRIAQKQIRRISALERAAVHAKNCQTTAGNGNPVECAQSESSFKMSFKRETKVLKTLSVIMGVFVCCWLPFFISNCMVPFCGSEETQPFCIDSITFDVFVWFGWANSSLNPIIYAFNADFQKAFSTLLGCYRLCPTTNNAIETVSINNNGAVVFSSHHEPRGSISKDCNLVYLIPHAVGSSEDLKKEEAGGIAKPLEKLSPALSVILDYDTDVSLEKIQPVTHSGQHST

| IC50 (homogenates from rat striatum, read-out: IC50 (nM) Dopamine D1 receptor) [nM] | SMILES | IC50 [nM] |
| --- | --- | --- |
|  | CN1CCc2cc(Cl)c(O)cc2C(c2cc(Br)cc3c2OCC3)C1 (single isomer, unassigned; (+)) [Example 1, (+) 8-Chloro-5-(5-bromo-2,3-dihydrobenzofuran-7-yl)-7-hydroxy-3-methyl-2,3,4,5-tetrahydro-1H-3-benzazepine] | 0.7 |
| 0.9 | CN1CCc2cc(Cl)c(O)cc2C(c2c(Cl)c(Cl)cc3c2OCC3)C1 (single isomer, unassigned; (+)) [Example 3, (+)8-Chloro-5-(5,6-dichloro-2,3-dihydrobenzofuran-7-yl)-7-hydroxy-3-methyl-2,3,4,5-tetrahydro-1H-3-benzazepine] |  |
